We go through twelve compounds from patent US20080139546A1, “Tetrahydroquinoline, indoline, and related aniline derivatives of heterocycle-fused benzodioxan methylamines” (Wyeth, priority 2006, published 2008).

The target of experiment [1] is T1, Human 5-HT1A Receptor (Homo sapiens, UniProt P08908).
T1 construct: expressed in transfected cells; host or cells: CHO cells (Chinese hamster ovary), stably transfected
T1 sequence (P08908 1-422): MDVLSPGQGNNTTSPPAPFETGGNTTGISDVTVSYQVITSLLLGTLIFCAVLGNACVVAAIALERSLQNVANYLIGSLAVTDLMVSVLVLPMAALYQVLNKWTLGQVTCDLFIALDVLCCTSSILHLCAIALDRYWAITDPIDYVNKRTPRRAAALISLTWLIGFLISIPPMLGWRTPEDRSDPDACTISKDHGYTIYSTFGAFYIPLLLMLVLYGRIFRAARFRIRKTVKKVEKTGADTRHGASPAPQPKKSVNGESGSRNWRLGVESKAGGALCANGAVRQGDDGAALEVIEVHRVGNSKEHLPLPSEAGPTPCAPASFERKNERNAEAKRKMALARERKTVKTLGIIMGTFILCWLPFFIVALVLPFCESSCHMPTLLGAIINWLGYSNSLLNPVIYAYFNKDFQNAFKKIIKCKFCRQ
The experiment can be described thus: cAMP radioimmunoassay (RIA) in human 5-HT1A receptor cell line, inhibition of forskolin stimulated cAMP. The class given is cell-based. The following applies: forskolin (1 μM) stimulated cAMP, stably transfected CHO cells; read-out: h5HT1A cAMP EC50 (nM) (Example 19). How it is done:
Certain effects of 5-HT (e.g., certain effects mediated by the interaction of 5-HT with the 5-HT1A receptor) are mediated by cAMP. To test the ability of compounds described herein to modulate cAMP, a radioimmunoassay (RIA) method was used. Briefly, stably transfected CHO cells were grown in DMEM containing 10% heat inactivated FBS and non-essential amino acids. The cells were plated at a density of 10^6 cells per well in a 96-well plate and incubated for 2 days in a CO2 incubator. On the second day, the medium was replaced with 0.1 ml Krebs and incubated 15 minutes at 37° C. The medium was then replaced with Krebs buffer containing 500 μM isobutylmethylxanthine (IBMX) and incubated for approximately 5 minutes at 37° C. Wells were treated with forskolin (1 μM final concentration) followed immediately by test compound (0.1 and 1 μM for the initial screen) and incubated for an additional 10 minutes at 37° C. The reaction was terminated by removal of the medium and the addition of 0.5 ml ice cold assay buffer (supplied in the RIA kit). Plates were stored at −20° C. prior to assessment of cAMP formation by RIA. The cAMP kit was obtained from Amersham (Piscataway, N.J.) and the RIA was performed as per the kit instructions. In the initial screen, percent inhibition of forskolin stimulated cAMP was measured. […] These compounds behaved as either full agonists or partial agonists. 5-HT, BMY 7378, buspirone, and 8-OH-DPAT were used as reference compounds.
All compounds tested inhibited the forskolin-stimulated increase in […].

For the next experiment, the target named is T2, serotonin transporter (Rattus norvegicus, UniProt P31652).
T2 construct: frontal cortical membranes prepared from male Sprague Dawley rats; from tissue; host or cells: rat frontal cortex membranes (male Sprague Dawley)
The experiment can be described thus: 3H-paroxetine binding to rat frontal cortical membranes, affinity for the serotonin transporter. The following applies: 3H-paroxetine 0.1 nM, male Sprague Dawley rat frontal cortical membranes; read-out: 5HT Uptake r5HT-T Ki (nM) (Example 18). How it is done: A protocol similar to that used by Cheetham et al. (Neuropharmacol. 32:737-743, 1993) was used to determine the affinity of compounds for the serotonin transporter (i.e., by determining the relative ability of a compound to displace ^3H-paroxetine from male rat frontal cortical membranes). Briefly, frontal cortical membranes prepared from male Sprague Dawley rats were incubated with ^3H-paroxetine (0.1 nM) for 60 minutes at 25° C. All tubes also contained either vehicle, test compound (one to eight concentrations), or a saturating concentration of fluoxetine (10 μM) to define […]. All reactions were terminated by the addition of ice cold Tris buffer followed by rapid filtration using a Tom Tech filtration device to separate bound from free ^3H-paroxetine. Bound radioactivity was quantitated using a Wallac 1205 Beta Plate® counter. Nonlinear regression analysis was used to determine IC50 values which were converted to Ki values using the method of Cheng and Prusoff (Biochem. Pharmacol. 22: 3099-3108, 1973); […].
This affinity translates to the blockade of 5-HT uptake, i.e., the ability of a compound increase synaptic 5-HT levels and to act like an SSRI.

The target of experiment [2] is T1, Human 5-HT1A Receptor. The experiment can be described thus: 8-OH-DPAT binding, human 5-HT1A receptor cell line (displacement of [3H]-OHDPAT, stably transfected CHO cells). The following applies: [3H]-OHDPAT 1.5 nM, read-out: h5HT1A Affinity Ki (nM) (Example 17). How it is done: Affinity for the serotonin 5-HT1A receptor was established by testing each compound's ability to displace [^3H]-OHDPAT (dipropylaminotetralin) from the 5-HT1A serotonin receptor following a modification of the procedure of Hall et al., J. Neurochem. 44:1685-1696 (1985). Stably transfected Chinese hamster ovary (CHO) cells were plated and grown in Dulbecco's Modified Eagle's Medium (DMEM) containing 10% heat inactivated fetal bovine serum (FBS) and non-essential amino acids. Cells were scraped off the plate, transferred to centrifuge tubes, and washed twice by centrifugation (2000 rpm for 10 minutes at 4° C.) in buffer (50 mM Tris, pH 7.5). The resulting pellets were aliquoted and stored at −80° C. On the day of assay, the cells were thawed on ice, and re-suspended in buffer. The binding assay was performed in a 96-well microtiter plate in a total volume of about 250 μL. Non-specific binding was determined in the presence of 10 μM 5-HT; the final radio ligand concentration was 1.5 nM. Following a 30 minute incubation at room temperature, the reaction was terminated by the addition of ice cold buffer and rapid filtration through a GF/B filter presoaked for 30 minutes in 0.5% polyethyleneimine (PEI). Compounds were initially tested in a single point assay to determine percent inhibition at 1 μM, 0.1 μM, and 0.01 μM. Subsequently, Ki values were determined for compounds defined to be active. Percent inhibition Ki was determined by RFComp (Lundon Software, Chagrin Falls, Ohio), with serotonin and 8-OH-DPAT as the reference compounds.
High affinity for the receptor is evidence of a compound's ability to directly modulate activity at the 5-HT1A receptor.

In a further experiment the target is T3, Human 5-HT Transporter (Homo sapiens, UniProt P31645).
T3 construct: endogenous in cells; host or cells: Jar cells (human carcinoma cell line), treated with staurosporine
Put plainly: Inhibition of 3H-5-HT uptake by Jar cells possessing the human 5-HT transporter. It counts as cell-based. The following applies: Jar cells treated with staurosporine, read-out: 5HT Uptake h5HT-T IC50 (nM) (Example 20). The procedure:
[Staurosporine greatly increases the expression of the 5-HT-Transporter.] On the day of assay, vehicle, excess of fluoxetine, or test compound was added to various wells on the plate. ^3H-5-HT was then aliquoted into all wells and the samples were incubated at 37° C. for 5 minutes. The wells were then washed with ice cold 50 mM Tris HCl (pH 7.4) buffer and aspirated to remove free ^3H-5-HT. 25 μL 0.25 M NaOH was then added to each well to lyse the cells and 75 μL scintillation cocktail (Microscint™ 20) was added prior to quantitation on a Packard TopCount® machine. Tubes with vehicle represent total possible uptake, radioactivity counted in tubes with excess fluoxetine represent nonspecific binding/uptake and were subtracted from the total possible uptake to give total possible specific uptake. This nonspecific binding (usual low in number) was then subtracted from the counts obtained in wells with various test compounds (or different concentrations of a test compound) resulting in uptake in the presence of drug. Specific uptake was then expressed as a percent of control values and was analyzed using nonlinear regression analysis (Prizm) to determine IC50 values. If the compound was active in inhibiting 5-HT uptake, its counts will be close to that obtained with fluoxetine.
This blockade, in vivo, would be expected to result in an increase in extracellular 5-HT concentrations.

The structures appear in SMILES notation.

T2 sequence (P31652 whole entry): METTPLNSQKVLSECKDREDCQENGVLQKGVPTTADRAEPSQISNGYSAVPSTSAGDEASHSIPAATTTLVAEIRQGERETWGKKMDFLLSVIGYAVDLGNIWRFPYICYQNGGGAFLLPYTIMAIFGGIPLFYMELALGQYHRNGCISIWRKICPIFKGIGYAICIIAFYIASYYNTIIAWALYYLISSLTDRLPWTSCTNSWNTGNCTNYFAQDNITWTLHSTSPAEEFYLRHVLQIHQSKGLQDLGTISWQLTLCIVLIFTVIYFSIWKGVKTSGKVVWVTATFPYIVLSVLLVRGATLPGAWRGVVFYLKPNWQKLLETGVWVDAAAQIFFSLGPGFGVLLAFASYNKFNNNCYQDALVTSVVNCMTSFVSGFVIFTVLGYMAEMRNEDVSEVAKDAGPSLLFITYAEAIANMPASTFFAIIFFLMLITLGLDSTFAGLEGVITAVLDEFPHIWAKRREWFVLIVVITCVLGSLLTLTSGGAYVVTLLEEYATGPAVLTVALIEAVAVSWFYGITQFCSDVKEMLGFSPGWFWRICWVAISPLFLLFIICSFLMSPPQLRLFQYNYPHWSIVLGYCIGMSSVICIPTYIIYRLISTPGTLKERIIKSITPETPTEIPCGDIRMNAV
T3 sequence (P31645 whole entry): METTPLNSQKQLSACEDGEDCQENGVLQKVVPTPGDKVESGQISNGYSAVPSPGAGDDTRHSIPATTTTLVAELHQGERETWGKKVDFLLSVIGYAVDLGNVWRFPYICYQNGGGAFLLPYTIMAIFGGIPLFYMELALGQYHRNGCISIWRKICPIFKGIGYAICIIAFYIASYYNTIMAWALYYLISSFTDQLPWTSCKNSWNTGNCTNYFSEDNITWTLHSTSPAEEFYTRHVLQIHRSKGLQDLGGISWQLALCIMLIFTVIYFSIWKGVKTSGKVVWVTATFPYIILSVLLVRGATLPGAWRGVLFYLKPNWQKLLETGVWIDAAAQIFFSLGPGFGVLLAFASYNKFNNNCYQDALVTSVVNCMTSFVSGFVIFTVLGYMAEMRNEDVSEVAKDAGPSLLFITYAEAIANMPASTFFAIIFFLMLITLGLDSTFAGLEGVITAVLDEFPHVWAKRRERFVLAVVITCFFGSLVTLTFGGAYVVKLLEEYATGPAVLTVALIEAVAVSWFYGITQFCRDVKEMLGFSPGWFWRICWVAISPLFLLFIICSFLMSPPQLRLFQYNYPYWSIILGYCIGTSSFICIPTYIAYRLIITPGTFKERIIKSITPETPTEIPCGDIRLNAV

Take `Cc1ccc2c3c(ccc2n1)OC[C@H](CNCCCN1CCCc2cc(F)c(Cl)cc21)O3` [Example 10, 3-(7-chloro-6-fluoro-3,4-dihydroquinolin-1(2H)-yl)-N-{[(2S)-8-methyl-2,3-dihydro[1,4]dioxino[2,3-f]quinolin-2-yl]methyl}propan-1-amine]: the EC50 on Human 5-HT1A Receptor [1] came to 1.95 nM. The Ki came out at 116 nM on serotonin transporter and 3.22 nM on Human 5-HT1A Receptor [2].
For the compound `Cc1ccc2c3c(ccc2n1)OC[C@H](CNCCCCN1CCc2ccc(F)cc21)O3` [Example 14, 4-(6-fluoro-2,3-dihydro-1H-indol-1-yl)-N-{[(2S)-8-methyl-2,3-dihydro[1,4]dioxino[2,3-f]quinolin-2-yl]methyl}butan-1-amine], the EC50 on Human 5-HT1A Receptor [1] was 1.66 nM. For the same compound, the IC50 at Human 5-HT Transporter was 161 nM. The Ki on serotonin transporter came out at 3.3 nM; on Human 5-HT1A Receptor [2], 0.19 nM.
For the compound `Cc1ccc2c3c(ccc2n1)OC[C@H](CNCCCN1CCc2cc(F)ccc21)O3` [Example 2, 3-(5-fluoro-2,3-dihydro-1H-indol-1-yl)-N-{[(2S)-8-methyl-2,3-dihydro[1,4]dioxino[2,3-f]quinolin-2-yl]methyl}propan-1-amine], the half-maximal effective concentration (EC50) on Human 5-HT1A Receptor [1] came out at 3.76 nM. For the same compound, the values for the inhibition constant (Ki) at serotonin transporter and at Human 5-HT1A Receptor [2] were 10.2 nM and 0.6 nM, respectively.
With `Cc1ccc2c3c(ccc2n1)OC[C@H](CNCCCN(C)c1ccccc1Cl)O3` [Example 13, N-(2-chlorophenyl)-N-methyl-N′-{[(2S)-8-methyl-2,3-dihydro[1,4]dioxino[2,3-f]quinolin-2-yl]methyl}propane-1,3-diamine], the EC50 at Human 5-HT1A Receptor [1] came out at 2.49 nM. Besides, the Ki on serotonin transporter was determined as 3.5 nM; on Human 5-HT1A Receptor [2] it was 0.57 nM.
For the compound `Cc1ccc2c3c(ccc2n1)OC[C@H](CNCCCN1CCCc2ccc(F)cc21)O3` [Example 4, 3-(7-fluoro-3,4-dihydroquinolin-1(2H)-yl)-N-{[(2S)-8-methyl-2,3-dihydro[1,4]dioxino[2,3-f]quinolin-2-yl]methyl}propan-1-amine], the EC50 on Human 5-HT1A Receptor [1] was 1.57 nM. In addition, on Human 5-HT Transporter, the IC50 came to 32.9 nM. Also, the values for the Ki at serotonin transporter and at Human 5-HT1A Receptor [2] were 7.7 nM and 0.27 nM, respectively.
In the case of `Cc1ccc2c3c(ccc2n1)OC[C@H](CNCCCN1CCc2ccc(F)cc21)O3` [Example 3, 3-(6-fluoro-2,3-dihydro-1H-indol-1-yl)-N-{[(2S)-8-methyl-2,3-dihydro[1,4]dioxino[2,3-f]quinolin-2-yl]methyl}propan-1-amine], the EC50 on Human 5-HT1A Receptor [1] was found to be 1.88 nM. In addition, the IC50 on Human 5-HT Transporter came to 107 nM. The Ki was found to be 2.8 nM on serotonin transporter and 0.35 nM at Human 5-HT1A Receptor [2].
For `Cc1ccc2c3c(ccc2n1)OC[C@H](CNCCCN1CCCc2cc(F)c(F)cc21)O3` [Example 7, 3-(6,7-difluoro-3,4-dihydroquinolin-1(2H)-yl)-N-{[(2S)-8-methyl-2,3-dihydro[1,4]dioxino[2,3-f]quinolin-2-yl]methyl}propan-1-amine], the EC50 on Human 5-HT1A Receptor [1] is 1.63 nM. The IC50 at Human 5-HT Transporter was 77 nM. Besides, the figures for the Ki on serotonin transporter and on Human 5-HT1A Receptor [2] were 12.3 nM and 3.73 nM, respectively.
In the case of `Cc1ccc2c3c(ccc2n1)OC[C@H](CNCCCN1CCCc2cc(F)ccc21)O3` [Example 8, 3-(6-fluoro-3,4-dihydroquinolin-1(2H)-yl)-N-{[(2S)-8-methyl-2,3-dihydro[1,4]dioxino[2,3-f]quinolin-2-yl]methyl}propan-1-amine], the concentration giving a half-maximal response (EC50) on Human 5-HT1A Receptor [1] was 1.48 nM. The IC50 at Human 5-HT Transporter stood at 76.9 nM. Further, the Ki on serotonin transporter worked out at 7.2 nM; on Human 5-HT1A Receptor [2], 1.44 nM.
`Cc1ccc2c3c(ccc2n1)OC[C@H](CNCCCN1CCOc2ccccc21)O3` [Example 6, 3-(2,3-dihydro-4H-1,4-benzoxazin-4-yl)-N-{[(2S)-8-methyl-2,3-dihydro[1,4]dioxino[2,3-f]quinolin-2-yl]methyl}propan-1-amine]: the EC50 on Human 5-HT1A Receptor [1] worked out at 0.77 nM. Further, the figures for the Ki on serotonin transporter and at Human 5-HT1A Receptor [2] were 40.8 nM and 2.58 nM, respectively.
On to `Cc1ccc2c3c(ccc2n1)OC[C@H](CNCCCN1CCOc2ccc(F)cc21)O3` [Example 11, 3-(6-fluoro-2,3-dihydro-4H-1,4-benzoxazin-4-yl)-N-{[(2S)-8-methyl-2,3-dihydro[1,4]dioxino[2,3-f]quinolin-2-yl]methyl}propan-1-amine], for which the EC50 at Human 5-HT1A Receptor [1] amounted to 1.43 nM. For the same compound, the IC50 on Human 5-HT Transporter came to 4710 nM. In addition, the inhibition constant Ki on serotonin transporter stood at 14.7 nM; at Human 5-HT1A Receptor [2] it was 2.77 nM.
As for `Cc1ccc2c3c(ccc2n1)OC[C@H](CNCCCN1CCCc2cc(F)cc(F)c21)O3` [Example 9, 3-(6,8-difluoro-3,4-dihydroquinolin-1(2H)-yl)-N-{[(2S)-8-methyl-2,3-dihydro[1,4]dioxino[2,3-f]quinolin-2-yl]methyl}propan-1-amine], the EC50 on Human 5-HT1A Receptor [1] worked out at 1.18 nM. Also, the Ki on serotonin transporter was found to be 27 nM; at Human 5-HT1A Receptor [2], 1.41 nM.
Consider `Cc1ccc2c3c(ccc2n1)OC[C@H](CNCCCN1CCCCc2ccccc21)O3` [Example 12, N-{[(2S)-8-methyl-2,3-dihydro[1,4]dioxino[2,3-f]quinolin-2-yl]methyl}-3-(2,3,4,5-tetrahydro-1H-1-benzazepin-1-yl)propan-1-amine], for which the EC50 on Human 5-HT1A Receptor [1] was 3.06 nM. In addition, the Ki amounted to 36.2 nM on serotonin transporter and 0.79 nM at Human 5-HT1A Receptor [2].

One may read the EC50 as the concentration at which the effect is half-maximal. By Ki is commonly meant a dissociation constant, usually derived from enzyme kinetics or from competition with a known ligand. One may read the IC50 as the concentration that gives 50% inhibition.
